# From patent US8362022B2, “Selective subtype alpha 2 adrenergic agents and methods for use thereof” (Allergan, Inc., priority 2008, dated 2013)
# Columns and labels:
# [1] = molecular target: T1, alpha 2C receptor (Homo sapiens, UniProt P18825); experiment: RSAT assay (Receptor Selection and Amplification Technology), Alpha 2C; assay type: cell-based; details: RSAT
# T1 construct: expressed in transfected cells; host or cells: NIH-3T3
# T1 sequence (P18825 1-462): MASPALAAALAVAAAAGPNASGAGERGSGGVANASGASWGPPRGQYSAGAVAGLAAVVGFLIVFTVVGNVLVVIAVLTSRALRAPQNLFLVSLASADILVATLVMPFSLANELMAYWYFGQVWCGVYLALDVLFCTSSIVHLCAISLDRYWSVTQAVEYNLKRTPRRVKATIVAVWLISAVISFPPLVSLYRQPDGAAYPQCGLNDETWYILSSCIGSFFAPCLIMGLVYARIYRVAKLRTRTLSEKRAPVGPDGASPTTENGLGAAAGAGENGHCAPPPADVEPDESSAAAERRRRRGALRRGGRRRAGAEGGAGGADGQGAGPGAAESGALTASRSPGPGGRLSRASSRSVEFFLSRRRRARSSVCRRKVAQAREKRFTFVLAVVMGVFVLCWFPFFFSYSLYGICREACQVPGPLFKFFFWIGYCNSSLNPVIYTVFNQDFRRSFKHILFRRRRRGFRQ
# Description: (§1) The RSAT assay measures a receptor-mediated loss of contact inhibition that results in selective proliferation of receptor-containing cells in a mixed population of confluent cells. The increase in cell number is assessed with an appropriate transfected marker gene such as β-galactosidase, the activity of which can be easily measured in a 96-well format. Receptors that activate the G protein, Gq, elicit this response. Alpha 2 receptors, which normally couple to Gi, activate the RSAT response when coexpressed with a hybrid Gq protein that has a Gi receptor recognition domain, called Gq/i5.
# (§2) NIH-3T3 cells are plated at a density of 2×10^6 cells in 15 cm dishes and maintained in Dulbecco's modified Eagle's medium supplemented with 10% calf serum. One day later, cells are cotransfected by calcium phosphate precipitation with mammalian expression plasmids encoding p-SV-β-galactosidase (5-10 μg), receptor (1-2 μg) and G protein (1-2 μg). 40 μg salmon sperm DNA may also be included in the transfection mixture. […] Cells are thawed and 100 μl added to 100 μL aliquots of various concentrations of drugs in triplicate in 96-well dishes. Incubations continue 72-96 hr at 37° C. After washing with phosphate-buffered saline, β-galactosidase enzyme activity is determined by adding 200 μL of the chromogenic substrate (consisting of 3.5 mM o-nitrophenyl-β-D-galactopyranoside and 0.5% nonidet P-40 in phosphate buffered saline), incubating overnight at 30° C. and measuring optical density at 420 nm. The absorbance is a measure of enzyme activity, which depends on cell number and reflects a receptor-mediated cell proliferation. The efficacy or intrinsic activity is calculated as a ratio of the maximal effect of the drug to the maximal effect of a standard full agonist for each receptor subtype. Brimonidine, the chemical structure of which is shown below, is used as the standard agonist for the alpha 2B and alpha 2C receptors. […] NA stands for “not active” at concentrations less than 3-10 micromolar.
# [2] = molecular target: T2, alpha 2B receptor (Homo sapiens, UniProt P18089); experiment: RSAT assay (Receptor Selection and Amplification Technology), Alpha 2B; assay type: cell-based; details: RSAT, Table 1
# T2 construct: expressed in transfected cells; host or cells: NIH-3T3
# T2 sequence (P18089 1-450): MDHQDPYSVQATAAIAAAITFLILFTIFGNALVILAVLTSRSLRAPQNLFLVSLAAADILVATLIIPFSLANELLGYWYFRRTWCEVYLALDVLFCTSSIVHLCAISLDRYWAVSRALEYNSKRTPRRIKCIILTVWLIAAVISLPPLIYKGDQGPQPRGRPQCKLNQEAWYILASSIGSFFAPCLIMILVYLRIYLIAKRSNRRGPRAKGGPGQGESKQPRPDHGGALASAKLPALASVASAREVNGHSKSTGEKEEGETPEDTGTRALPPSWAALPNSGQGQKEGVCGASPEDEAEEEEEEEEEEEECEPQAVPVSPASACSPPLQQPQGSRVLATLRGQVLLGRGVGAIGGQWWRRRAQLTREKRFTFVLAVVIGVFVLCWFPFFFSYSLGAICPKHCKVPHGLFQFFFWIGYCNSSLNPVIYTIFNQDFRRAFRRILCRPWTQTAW
# Description: as §1, §2
# [3] = value in parentheses, ratio of maximal effect to that of brimonidine
structure (smiles),measurement,setting,value
"Cc1cccc(C(Cc2cccnc2)/N=C2/NCCO2)c1C (stereo not shown) [Compound 21, 1-(2,3-Dimethylphenyl)-N-(oxazolidin-2-ylidene)-2-(pyridin-3-yl)ethanamine]",EC50,"[1]; transfected NIH-3T3 cells with Gq/i5, NA = not active at concentrations less than 10 micromolar, read-out: potency nM (EC50) Alpha 2C",18 nM
same,Intrinsic Activity efficacy Alpha 2C,[1]; [3],0.4
same,EC50,"[2]; transfected NIH-3T3 cells with Gq/i5, read-out: potency nM (EC50) Alpha 2B",5 nM
same,Intrinsic Activity efficacy Alpha 2B,[2]; [3],1.2
